This note sets out measurements from ChEMBL document CHEMBL1201862, “PubChem BioAssay data set” (2004).

Test systems include 786-0; A498; ACHN; CCRF-CEM; EKVX; HOP-62; KM12; MDA-MB-231; MDA-MB-435; NCI/ADR-RES; OVCAR-3; OVCAR-4; PC-3; RPMI-8226; RXF 393; SNB-19; SNB-75; T47D; TK-10; SK-MEL-2.
Common to all, as to assay: DTP human tumour cell line panel, 48 h

The term GI50 denotes the concentration at which growth is held to half of that of the control.

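The compound was tested at five concentrations on cells cultured in 96-well plates, with a 48-hour exposure period. Here, GI50 denotes the concentration required for 50% inhibition of growth.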 Active and inactive are the calls of the source. Cut-off read from the data, not from the text of the source: active = GI50 up to about 1.1 µM and inactive = higher. Some results are limits rather than exact numbers.

Take `CCCCSC1=N/C(=C\c2ccc(N(C)C)cc2)C(=O)N1`: the GI50 with 786-0 was 17.9 µM (inactive); with A498, 13.9 µM (inactive); in the assay on ACHN it was 29.8 µM (inactive); in the assay with CCRF-CEM it was > 100 µM (inactive); in the assay on EKVX it was 19.1 µM (inactive); with HOP-62, 46.2 µM (inactive). Besides, the GI50 is 18 µM (inactive) with KM12; 24 µM (inactive) in the assay with MDA-MB-231; 28.6 µM (inactive) in the assay with MDA-MB-435; 82.6 µM (inactive) with NCI/ADR-RES; 27 µM (inactive) in the assay on OVCAR-3; 21 µM (inactive) in the assay with OVCAR-4. In addition, the concentration for 50% growth inhibition (GI50) in the assay on PC-3 is 0.256 µM (active); in the assay on RPMI-8226, 16.7 µM (inactive); in the assay with RXF 393, 30 µM (inactive); with SNB-19, 31.7 µM (inactive); in the assay with SNB-75 it was 35.5 µM (inactive); in the assay on T47D it was 18.7 µM (inactive). Further, the GI50 in the assay on TK-10 is > 100 µM (inactive).
Take `CCOC(=O)c1nc2ccc(C(F)(F)F)cc2nc1Oc1ccc(C(=O)OC)cc1`: the GI50 was 66.1 µM (inactive) in the assay with 786-0; > 100 µM (inactive) in the assay on A498; > 100 µM (inactive) in the assay with ACHN; > 100 µM (inactive) in the assay on CCRF-CEM; > 100 µM (inactive) with EKVX; 22.5 µM (inactive) in the assay with HOP-62. The GI50 with KM12 is 56.4 µM (inactive); in the assay on MDA-MB-231, 80.7 µM (inactive); in the assay on MDA-MB-435, 71.1 µM (inactive); with NCI/ADR-RES, > 100 µM (inactive); with OVCAR-4, 98.4 µM (inactive); in the assay with PC-3, 32.5 µM (inactive). The GI50 in the assay with RPMI-8226 is > 100 µM (inactive); in the assay on RXF 393, 64.6 µM (inactive); in the assay on SK-MEL-2, 32.1 µM (inactive); with SNB-19, 46.8 µM (inactive); in the assay with SNB-75, 50.4 µM (inactive); in the assay with T47D, > 100 µM (inactive). Further, the GI50 in the assay on TK-10 was 45.8 µM (inactive).
For `CC1=C(C)CC2(C=C(C(C)(C)C)C(=O)C(C(C)(C)C)=C2)SC1`, the GI50 in the assay on 786-0 was 17.9 µM (inactive); in the assay on A498 it was 17.5 µM (inactive); in the assay with CCRF-CEM, 19.8 µM (inactive); in the assay with EKVX, 18.6 µM (inactive); in the assay with HOP-62, 19.3 µM (inactive); with KM12, 19.1 µM (inactive). Also, the GI50 with MDA-MB-231 was 14.3 µM (inactive); in the assay with MDA-MB-435 it was 19.5 µM (inactive); in the assay on NCI/ADR-RES, 19.1 µM (inactive); in the assay on OVCAR-3, 17.9 µM (inactive); in the assay with OVCAR-4, 26.7 µM (inactive); in the assay on PC-3 it was 26.7 µM (inactive). The GI50 in the assay on RPMI-8226 is 12.8 µM (inactive); with RXF 393, 18.5 µM (inactive); in the assay on SK-MEL-2, 12.3 µM (inactive); in the assay on SNB-19, 17.3 µM (inactive); in the assay on SNB-75, 16.1 µM (inactive); in the assay with T47D, 27.9 µM (inactive). Moreover, the GI50 with TK-10 was 18.6 µM (inactive).
`CCN(CC)C(=O)N[C@@H](CC(C)C)C(=O)NC`: the GI50 with 786-0, in the assay with A498, in the assay on ACHN, in the assay with CCRF-CEM, in the assay with EKVX and with HOP-62 was > 100 µM (inactive) throughout. The GI50 in the assay on KM12, with MDA-MB-231, in the assay on MDA-MB-435, in the assay on NCI/ADR-RES, with OVCAR-3 and in the assay on OVCAR-4 was > 100 µM (inactive) throughout. Further, the GI50 was 73.6 µM (inactive) in the assay on PC-3; > 100 µM (inactive) in the assay on RPMI-8226; > 100 µM (inactive) in the assay on RXF 393; > 100 µM (inactive) in the assay on SK-MEL-2; > 100 µM (inactive) in the assay with SNB-19; > 100 µM (inactive) with SNB-75. Also, the GI50 with T47D is > 100 µM (inactive).
